Measurements as given in BindingDB's records for doi:10.1016/j.bmc.2012.12.010 (Duquesne University, 2013).

Assay: Inhibition of MDR1 (unknown origin) transfected in human SKOV3 cells assessed as growth inhibition after 48 hrs by SRB assay

Structure (SMILES)	IC50 [nM]
CCN(c1ccc(OC)cc1)c1nc(N)nc2[nH]c3ccccc3c12	72
CCOc1ccc(N(C)c2nc(N)nc3[nH]c4ccccc4c23)cc1	29
